Laboratory results published in EP4000606A1, “COMPOUNDS FOR CORONAVIRUS INFECTION TREATMENT AND/OR PREVENTION” (priority 2020, dated 2022).
Read-outs that look alike come from different tables or passages of the source.

System: SARS-CoV-2
Assay: microbe, parasite or virus in culture
Format: cell-based
Settings: for IC50: Severe acute respiratory syndrome coronavirus 2, 120 h

| SMILES | Maximum confluence reached (%) (5 days) | further results |
| --- | --- | --- |
| CC[C@@]1([C@@H]2O[C@@H]([C@H]3O[C@@](O)(COC(=O)Nc4ccccc4)[C@H](C)C[C@@H]3C)C[C@@H]2C)CC[C@H]([C@]2(C)CC[C@]3(C[C@H](O)[C@@H](C)[C@@H]([C@@H](C)[C@@H](OC)[C@H](C)C(=O)[O-])O3)O2)O1.[Na+] [compound 98, 4(S)-[(2S,5R,7S,8R,9S)-2-[(2S,2'R,3'S,5R,5'R)-2-Ethyl-5'-[6(R)-hydroxy-3(S),5(R)-dimethyl-6-(phenylaminocarbonyloxymethyl)tetrahydropyran-2(S)-yl]-3'-methylperhydro-2,2'-bifuran-5-yl]-9-hydroxy-2,8-dimethyl-1,6-dioxaspiro[4.5]dec-7-yl]-3(R)-methoxy-2(S)-methylpentanoic acid sodium salt] | 38.24 | IC50: 3.18 µM |
| Nc1ncc(-c2ccnc(Nc3ccncc3)n2)c(CC2CC2)n1 [compound 20, 4'-(Cyclopropylmethyl)-N2-(pyridin-4-yl)-4,5'-bipyrimidine-2,2'-diamine] | 98.17 |  |
| COc1ccc2c(c1)[C@]1(C[C@H]1c1ccc3c(/C=C/c4ccc(CN5C[C@@H](C)O[C@@H](C)C5)cc4)n[nH]c3c1)C(=O)N2.O=C(O)/C=C/C(=O)O [compound 33, (1R,2S)-2-[3-[(E)-2-[4-[(cis-2,6-Dimethylmorpholin-4-yl)methyl]phenyl]vinyl]-1H-indazol-6-yl]-5'-methoxyspiro[cyclopropane-1,3'-indol]-2'(1'H)-one (2E)-but-2-enedioate] | 105.46 |  |
| COc1cc(NCc2ccc3nc(N)nc(N)c3c2C)cc(OC)c1OC [compound 2, 2,4-Diamino-5-methyl-6-[(3,4,5-trimethoxyanilino)methyl]quinaz oline 5-Methyl-6-[[(3,4,5-trimetoxyphenyl)amino]methyl]-2,4-quinazolinediamine] | 78.23 |  |
| Cc1ccc(C(=O)Nc2cccc(C(F)(F)F)c2)cc1Nc1nc(-c2cccnc2)nc2c1cnn2C [compound 62, 4-methyl-3-{[1-methyl-6-(3-pyridinyl)-1H-pyrazolo[3,4-d]pyrimidin-4-yl]amino}-N-[3-(trifluoromethyl)phenyl]benzamide] |  | Maximum confluence reached (%): 88.43% |
| CCC(C/C=C/c1ccccc1)(c1ccccc1)N(C)CC1CC1 (single isomer, unassigned; (+)) [compound 89, (+)-N-(Cyclopropylmethyl)-N-[1-ethyl-1,4-diphenyl-3(E)-butenyl]-N-methylamine] | 58.34 | IC50: 11.2 µM |
| O=C(Nc1ccc(Cl)c(Cl)c1)Nc1ccc(Cl)c(Cl)c1 [compound 72, 1,3-Bis(3,4-dichlorophenyl)urea] | 45.87 |  |
| CC(C)c1cnn2c(NCc3ccccc3)cc(NCCCCCCN)nc12 [compound 48, N5-(6-Aminohexyl)-N7-benzyl-3-isopropylpyrazolo[1,5-a]pyrimidine-5,7-diamine] | 47.31 |  |
| CC1(N2CCC(n3c([C@@H]4CCCNC4)nc4ccccc43)CC2)CCCCCCC1 [compound 51, 1-[1-(1-Methylcyclooctyl)piperidin-4-yl]-2-[3(R)-piperidinyl]-1H-benzimidazole] | 57.77 |  |
| Nc1ccc(C(=O)Nc2cccc(-c3nc(N4CCOCC4)c4oc5ncccc5c4n3)c2)cn1 [compound 104, 6-Amino-N-[3-[4-(4-morpholinyl)pyrido[3',2':4,5]furo [3,2-d]pyrimidin-2-yl]phenyl]pyridine-3-carboxamide] | 35.48 |  |
| O=C(C1CC1)N1CC[C@@H](Cc2n[nH]c(=O)n2-c2ccc(-c3ccc4ccoc4c3)cc2)C1 [compound 67, 4-[4-(1-Benzofuran-6-yl)phenyl]-5-[1-(cyclopropylcarbonyl)pyrrolidin-3(S)-ylmethyl]-3,4-dihydro-2H-1,2,4-triazol-3-one] | 31.06 | IC50: 17 µM |
| CCN(CC)CCO[C@H]1CC[C@@]2(C)C(=CC[C@@H]3[C@@H]2CC[C@]2(C)C(=O)CC[C@@H]32)C1.Cl [compound 80, 3beta-[2-(Diethylamino)ethoxy]androst-5-en-17-one hydrochloride] | 44.66 |  |
| N#Cc1cccc(C#N)c1-c1nc2c3ccc(Cl)cc3c3ccccc3c2[nH]1 [compound 64, 2-(6-Chloro-1H-phenanthro[9,10-d]imidazol-2-yl)benzene-1,3-dicarbonitrile] | 98.48 |  |
| COc1ccccc1[C@H](Cn1c(=O)n(C(C)(C)C(=O)O)c(=O)c2c(C)c(-c3ncco3)sc21)OC1CCOCC1 [compound 61, 2-[1-[(2R)-2-(2-Methoxyphenyl)-2-(tetrahydro-2H-pyran-4-yloxy)ethyl]-5-methyl-6-(1,3-oxazol-2-yl)-2,4-dioxo-1,4-dihydrothieno[2,3-d]pyrimidin-3(2H)-yl]-2-methylpropanoic acid] | 78.18 |  |
| Cc1cc(O[C@@H](CCC(F)(F)F)c2ccc(C(=O)NCCC(=O)O)cc2)cc(C)c1-c1ccc(C(C)(C)C)cc1 [compound 57, N-(4-[(1S)-1-[(4'-tert-Butyl-2,6-dimethylbiphenyl-4-yl)oxy]-4,4,4-trifluorobutyl]benzoyl)-beta-alanine] | 39.53 |  |
| Oc1c(Cl)cc(Cl)cc1Sc1cc(Cl)cc(Cl)c1O [compound 102, 2,2'-Thio-bis(4,6-dichlorophenol), Bis(2-hydroxy-3,5-dichlorophenyl) sulfide] | 31.25 |  |

| SMILES | Maximum confluence reached (%) (5 days) | further results |
| --- | --- | --- |
| CN1[C@@H]2CC[C@H]1C[C@@H](OC(=O)c1cc(Cl)cc(Cl)c1)C2 [compound 36, 1alphaH,3alpha,5alphaH-Tropan-3-yl-3,5-dichlorobenzoate; 3,5-Dichlorobenzoic acid endo-8-methyl-8-azabicyclo[3.2.1]oct-3-yl ester] | 69.05 | IC50: 43.9 µM |
| O=S(=O)(NCC1CC1)c1ccc(Nc2nccc(N3CCCc4cc(O)ccc43)n2)cc1 [compound 86, N-(Cyclopropylmethyl)-4-[[4-(3,4-dihydro-6-hydroxy-1(2H)-quinolinyl)-2-pyrimidinyl]amino]benzenesulfo namide] | 55.04 |  |
| Cn1nc(C(C)(C)C)cc1C(=O)N[C@@H](Cc1cccc(Cl)c1)C(=O)NCC#N [compound 63, 3-tert-butyl-N-{(1S)-1-(3-chlorobenzyl)-2-[(cyanomethyl)amino]-2-oxoethyl}-1-methyl-1H-pyrazole-5-carboxamide] | 96.18 |  |
| CC1=NN(c2ccc(C)c(C)c2)C(=O)/C1=N\Nc1cccc(-c2cccc(C(=O)O)c2)c1O [compound 37, 3'-[2(Z)-[1-(3,4-Dimethylphenyl)-3-methyl-5-oxo-4,5-dihydro-1H-pyrazol-4-ylidene]hydrazino]-2'-hydroxybiphenyl-3-carboxylic acid] | 63.17 | IC50: 58.1 µM |
| Cc1ccc(NC(=O)Nc2cc(C(F)(F)F)ccc2F)cc1Nc1ccc2c(c1)NC(=O)C2=Cc1ccc[nH]1 [compound 92, 1-[2-Fluoro-5-(trifluoromethyl)phenyl]-3-[4-methyl-3-[2-oxo-3-(1H-pyrrol-2-ylmethylene)-2,3-dihydro-1H-indol-6-ylamino]phenyl]urea] | 75.5 | IC50: 5.23 µM |
| COc1cc2c(NC3CCN(C(C)C)CC3)nc(N3CCC(F)(F)CC3)nc2cc1OCCCN1CCCC1 [compound 95, 2-(4,4-Difluoropiperidin-1-yl)-6-methoxy-N-[1-(propan-2-yl)piperidin-4-yl]-7-[3-(pyrrolidin-1-yl)propoxy]quinazolin-4-amine] | 31.06 |  |
| CC(C)(C)c1cc(C=C(C#N)C#N)cc(Br)c1O [compound 99, 2-(3-Bromo-5-tert-butyl-4-hydroxybenzylidene)propanedini trile 2-(3-Bromo-5-tert-butyl-4-hydroxybenzylidene)malononitrile] | 37.27 | IC50: 7.23 µM |
| CCCCOCCOc1ccc(-c2ccc3c(c2)C=C(C(=O)Nc2ccc([S@@+]([O-])Cc4cncn4CCC)cc2)CCCN3CC(C)C)cc1 [compound 65, (-)-(S)-8-[4-(2-Butoxyethoxy)phenyl]-1-isobutyl-N-[4-(1-propyl-1H-imidazol-5-ylmethylsulfinyl)phenyl]-1,2,3,4-tetrahydro-1-benzazocine-5-carboxamide] | 70.92 | IC50 (half maximal concentration able to recover the cytopathic effect of infection, VeroE6-EGFP cells, 0.01 MOI, 5 days, 8 concentrations, read-out: IC50): 55 µM |
| CCN(CC)CCOc1ccc2c(c1)C(=O)c1cc(OCCN(CC)CC)ccc1-2 [compound 84, 2,7-Bis[2-(diethylamino)ethoxy]-9H-fluoren-9-one] | 68.89 |  |
| CC(C)(C)c1cc(C=C(C#N)C#N)cc(C(C)(C)C)c1O [compound 103, (3,5-Di-tert-butyl-4-hydroxybenzylidene)malononitrile] | 51.51 | IC50: 205 µM |
| COc1ccc2cc1Oc1ccc(cc1)C[C@H]1c3cc(c(OC)cc3CCN1C)Oc1c(OC)c(OC)cc3c1[C@H](C2)N(C)CC3 [compound 79, (1beta)-(S,S)-6,6',7,12-Tetramethoxy-2,2'-dimethylberbaman] | 99.64 |  |
| Nc1nc(N)c2nc(CNc3ccc(C(=O)N[C@@H](CCC(=O)O)C(=O)O)cc3)cnc2n1 [compound 10, N-[4-(2,4-diamino-6-pteridinylmethylamino)benzolyl]-L-glutamic acid] | 72.54 |  |
| CC(C)C[C@H](NC(=O)CNC(=O)c1cc(Cl)ccc1Cl)B(O)O [compound 108, 1(R)-[2-(2,5-Dichlorobenzamido)acetamido]-3-methylbutylboronic acid] | 30.79 | IC50: 135 µM |
| Cl.O=C(c1c2ccccc2cc2ccccc12)N1CCC(N2CCC[C@@H](C(=O)N3CCOCC3)C2)CC1 [compound 101, 1-[1'-(Anthracen-9-ylcarbonyl)-1,4'-bipiperidin-3(R)-yl]-1-(4-morpholinyl)methanone hydrochloride] | 50.88 |  |
| Cn1c(Nc2ccc(C(F)(F)F)cc2)nc2cc(Oc3ccnc(-c4nc(C(F)(F)F)c[nH]4)c3)ccc21 [compound 70, 1-Methyl-N-[4-(trifluoromethyl)phenyl]-5-[2-[4-(trifluoromethyl)-1H-imidazol-2-yl]pyridin-4-yloxy]-1H-benzimidazol-2-amine] | 44.1 |  |
